{
  "source": "patent US20250082625A1",
  "about": "“NOVEL THERAPY” (priority 2016, published 2025)",
  "key": {"[1]": {"test_system": "HTB-9 cells", "assay": "Pre-treatment of HTB-9 bladder epithelial cells before CY17 infection (confocal imaging, ELISA)", "type": "cell-based, human", "settings": "for IL-1β secretion (ELISA, culture supernatants) / SP secretion (ELISA, culture supernatants): pre-treated before CY17 infection", "procedure": "(§1) Cells were grown on 8-well chamber slides (6×10^4 cells/well, Thermo Fischer Scientific) or in 6-well plates (6×10^5 cells/well) for 16 hours in media supplemented with 10% FBS. Media were removed, and cells were washed with PBS before adding medium without FBS. Cells were infected with bacteria diluted to appropriate concentration in PBS and incubated for one or four hours at 37° C. with 5% CO2.\n(§2) The two cell types were first infected with increasing concentrations of the acute cystitis strain E. coli CY-17 (10^2-10^4 cfu/ml) for 1 to 4 hours. NK1R and SP expression was used as a read out of the cellular response. […] A concentration of 10^4 cfu/ml of CY-17 and four hours of infection was chosen for further studies. Under these conditions, there was little cytotoxicity. To further characterize the neuropeptide response to bladder infection, the in vitro analysis was extended to include GALR2, OrxR2 and TAS2R43. Confocal microscopy was used in this instance. Infected cells were fixed (3.7% formaldehyde, 15 min), permeabilized (0.25% triton X-100, 5% FBS, 10 min), blocked (5% FBS, 1 h at RT), incubated overnight with primary antibodies in 5% FBS: Anti-NK1R (1:100, SC-15323, Santa Cruz), anti-SP, (1:200, ORB11399, Biorbyt), anti-orexin receptor 2, (1:200, AB10470, Abcam), anti-TAS2R43, (1:200, AB65513, Abcam), and anti-GALR2 antibodies (1:100, AB136264, Abcam). Appropriate fluorescently labeled secondary antibodies were used (Alexa Fluor® 488 goat anti-rabbit IgG, A-11034; Life Technologies, (1 hour at Room Temperature). After nuclear staining (DRAQ5, 1:1000, Abcam) slides were mounted (Fluoromount, Sigma-Aldrich), imaged by laser scanning confocal microscopy (MSM510 META confocal microscope, Carl Zeiss) and quantified by ImageJ software 1.46r (NIH).\n(§3) HTB-9 cells and differentiated SH-SY5Y cells were pre-treated with SR140333, or IL-1RA Anakinra (500 ng/ml) for 30 minutes before infection with CY17 (10^4 cfu/ml, four hours), or treatment with exogenous recombinant SP (R&D System) or IL-1β (Abnova) (20 ng/ml, four hours). After infection, cells were infected with CY17 and the NK1R, SP and IL-1β response was quantified by confocal imaging. IL-1β- and SP secretion was quantified by ELISA, in culture supernatants. In nerve- and bladder epithelial cells, SR140333 inhibited the SP/NK1R response to infection, consistent with an autocrine activation loop involving SP/NK1R as shown by confocal imaging (FIG. 10a). […] SP activated IL-1β expression and secretion in bladder epithelial cells but had no effect on IL-1β on nerve cells. (*=P<0.05, **=P<0.01, ***=P<0.001, Two-tailed t-test for confocal imaging data and Mann-Whitney U-test for ELISAs.\nFurthermore, to examine if the effects of NK1R inhibition can be generalized, we used two additional NK1R antagonists (CP99994 and L703.303). HTB-9 cells and differentiated SH-SY5Y cells were pre-treated with SR140333, CP99994, L-703.606 or IL-1RA Anakinra (500 ng/ml) for 30 minutes before infection with CY17 (10^4 cfu/ml, four hours), or treatment with exogenous recombinant SP (R&D System) or IL-1β (Abnova) (20 ng/ml, four hours)."}, "[2]": {"test_system": "HTB-9 cells", "assay": "Treatment of HTB-9 bladder epithelial cells with exogenous recombinant SP or IL-1β", "type": "cell-based, human", "settings": "four hours", "procedure": "as §3"}, "[3]": {"test_system": "differentiated SH-SY5Y cells", "assay": "Treatment of differentiated SH-SY5Y nerve cells with exogenous recombinant SP or IL-1β", "type": "cell-based, human", "settings": "four hours", "procedure": "as §3"}, "[4]": {"test_system": "differentiated SH-SY5Y cells", "assay": "Pre-treatment of differentiated SH-SY5Y nerve cells before CY17 infection (confocal imaging, ELISA)", "type": "cell-based, human", "procedure": "as §1, §2, §3\nFurthermore, to examine if the effects of NK1R inhibition can be generalized, we used two additional NK1R antagonists (CP99994 and L703.303). […]"}, "[5]": {"test_system": "Asc^−/− mice", "settings": "cited from earlier work"}, "[6]": {"test_system": "Asc^−/− mice", "assay": "Anakinra treatment of infected Asc^−/− mice (bladder NK1R/SP staining, disease severity)", "type": "in vivo", "procedure": "FIG. 8a The mice were pre-treated with interleukin 1 receptor antagonist (IL1-RA) Anakinra, 30 min before infection and daily after infection with E. coli CFT073 (1 mg in 100 μl of PBS i.p. per mouse). FIG. 8b Reduction in NK1R in Anakinra® treated compared to untreated control mice. Bladder tissue sections from infected Asc^−/− mice treated with Anakinra® were stained for NK1R. […] FIG. 8c Reduction in SP staining in Anakinra® treated Asc^−/− mice compared to untreated mice. […] Sections were obtained from 3 mice per group; one of two experiments is shown. *=p<0.05, **=p<0.01, two tailed t-test). FIG. 8d The disease severity score was reduced by the Anakinra (n=3-4, ***P<0.001, compared to untreated Asc^−/− mice, Fisher's exact test, Reference for (d):.\nTo confirm the importance of Il1b for the neuropeptide response, susceptible Asc^−/− mice were treated with the IL-1 receptor (IL-1R) antagonist Anakinra® (FIG. 8a). This therapeutic approach was recently shown to be effective against acute cystitis, as Anakinra® attenuated the hyper-inflammatory response to infection and prevented bladder pathology in susceptible mice.\nThese findings were confirmed in vitro by pretreating nerve cells and bladder epithelial cells with Anakinra (500 ng/ml) followed by CY-17 infection (10^4 CFU/ml, 4 hours)."}, "[7]": {"settings": "exogenous recombinant SP 20 ng/ml"}, "[8]": {"settings": "susceptible mice, recently shown"}, "[9]": {"settings": "infected Asc^−/− mice, 1 mg in 100 μl PBS i.p. 30 min before and daily after infection, vs infected controls without therapy"}},
  "note": "Where no end group is shown, it is not given here.",
  "data": [
    {"molecule": "COc1ccccc1CN[C@H]1CCCN[C@H]1c1ccccc1", "note": "[CP99994, (2S,3S)-N-[(2-Methoxyphenyl)methyl]-2-phenyl-3-piperidinamine]", "values": [
      {"measurement": "IL-1β secretion (ELISA, culture supernatants)", "setting": "[1]", "value": "decreased"},
      {"measurement": "SP secretion (ELISA, culture supernatants)", "setting": "[1]", "value": "decreased"}
    ]},
    {"molecule": "SP: exogenous recombinant SP (R&D System), ligand of NK1R (RPKPQQFFGLM-NH2; ends and bridges not checked; UniProt P20366 58-68, looked up)", "values": [
      {"measurement": "IL-1β expression and secretion", "setting": "[2]; [7]", "value": "activated"},
      {"measurement": "IL-1β", "setting": "[3]; [7]", "value": "no effect"}
    ]},
    {"molecule": "IL-1β: exogenous recombinant IL-1β (Abnova)", "values": [
      {"measurement": "SP/NK1R expression", "setting": "[2]; exogenous IL-1β 20 ng/ml", "value": "increased"},
      {"measurement": "SP/NK1R expression", "setting": "[3]; exogenous IL-1β 20 ng/ml", "value": "increased"}
    ]},
    {"molecule": "Anakinra: interleukin 1 receptor antagonist (IL1-RA) Anakinra", "values": [
      {"measurement": "IL-1β secretion (ELISA, culture supernatants)", "setting": "[1]", "value": "inhibited"},
      {"measurement": "NK1R expression / staining", "setting": "[1]; pretreatment prior to CY17 infection (10^4 CFU/ml, 4 hours)", "value": "marked reduction"},
      {"measurement": "NK1R staining", "setting": "[4]; Anakinra 500 ng/ml pretreatment, CY-17 infection (10^4 CFU/ml, 4 hours)", "value": "marked reduction"},
      {"measurement": "SP/NK1R response to infection (confocal imaging)", "setting": "[4]; pre-treated 30 minutes before CY17 (10^4 cfu/ml, four hours)", "value": "no effect"},
      {"measurement": "disease severity score", "setting": "[5]; compared to untreated Asc^−/− mice, n=3-4, P<0.001", "value": "reduced"},
      {"measurement": "bladder pathology", "setting": "[5]; [8]", "value": "prevented"},
      {"measurement": "hyper-inflammatory response to infection", "setting": "[5]; [8]", "value": "attenuated"},
      {"measurement": "NK1R response (mucosal NK1R staining, bladder sections)", "setting": "[6]; [9]", "value": "marked reduction"},
      {"measurement": "SP response (mucosal SP staining, bladder sections)", "setting": "[6]; [9]", "value": "marked reduction"},
      {"measurement": "baseline NK1R staining", "setting": "[6]; uninfected mice", "value": "reduced"},
      {"measurement": "baseline SP staining", "setting": "[6]; uninfected mice", "value": "reduced"}
    ]},
    {"molecule": "Ic1ccccc1CN[C@@H]1C2CCN(CC2)[C@@H]1C(c1ccccc1)c1ccccc1", "note": "[L703.606, (2R,3R)-2-benzhydryl-N-[(2-iodanylphenyl)methyl]-1-azabicyclo[2.2.2]octan-3-amine]", "values": [
      {"measurement": "IL-1β secretion (ELISA, culture supernatants)", "setting": "[1]", "value": "decreased"},
      {"measurement": "SP secretion (ELISA, culture supernatants)", "setting": "[1]", "value": "decreased"}
    ]}
  ]
}
